Source: PubChem BioAssay (NCI)
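In this assay, cells in 96-well plates receive the compound at five concentrations for 48 hours. Endpoints are linearly interpolated between the surrounding concentrations. Abbreviation: GI50, concentration required for 50% inhibition of growth. At the TGI there is no net growth.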

Columns and labels:
Experiment in all cases: DTP human tumour cell line panel, 48 h
TK-10 renal = test system: TK-10 renal
UACC-62 melanoma = test system: UACC-62 melanoma
HCC-2998 colon = test system: HCC-2998 colon
LOX IMVI melanoma = test system: LOX IMVI melanoma
SK-OV-3 ovarian = test system: SK-OV-3 ovarian
M14 melanoma = test system: M14 melanoma
SF-295 CNS = test system: SF-295 CNS
NCI-H460 lung = test system: NCI-H460 lung
MDA-MB-435 = test system: MDA-MB-435
NCI/ADR-RES ovarian = test system: NCI/ADR-RES ovarian

Which TGI (TK-10 renal) does the source give for C[C@]1(CO)CCC[C@@]2(C)C1CC[C@H]1CC3C[C@]12CC[C@]3(C)O (stereo not given in full) here?
Its TGI is greater than 100 µM.

What about the TGI (UACC-62 melanoma) of the same compound?
Its TGI is greater than 100 µM.

And the TGI (HCC-2998 colon)?
The TGI was greater than 100 µM.

What about the TGI (LOX IMVI melanoma) of the same compound?
Its TGI is greater than 100 µM.

What about the TGI (SK-OV-3 ovarian) of the same compound?
Its TGI is greater than 100 µM.

And the TGI (M14 melanoma)?
Its TGI is greater than 100 µM.

What about the TGI (SF-295 CNS) of the same compound?
Its TGI is greater than 100 µM.

And the TGI (NCI-H460 lung)?
Its TGI is 36.8 µM.

What does the source list for COc1ccc2c(c1)C(=O)c1c-2c(Nc2ccc(Cl)cc2)nc2ccccc12?
GI50 (TK-10 renal): 14.3 µM; TGI (TK-10 renal): 34.3 µM; GI50 (UACC-62 melanoma): 11.3 µM; TGI (UACC-62 melanoma): 26 µM; GI50 (HCC-2998 colon): 22.1 µM; TGI (HCC-2998 colon): > 100 µM; GI50 (LOX IMVI melanoma): 14.2 µM; TGI (LOX IMVI melanoma): 54.9 µM; GI50 (M14 melanoma): 31 µM; TGI (M14 melanoma): > 100 µM; GI50 (SF-295 CNS): 16.7 µM; TGI (SF-295 CNS): 46.6 µM; GI50 (MDA-MB-435): 38.6 µM; TGI (MDA-MB-435): > 100 µM; GI50 (NCI-H460 lung): > 100 µM; TGI (NCI-H460 lung): > 100 µM; GI50 (NCI/ADR-RES ovarian): 16.6 µM; TGI (NCI/ADR-RES ovarian): > 100 µM

For O=C(O)c1cccc(N=Nc2c(S(=O)(=O)O)ccc3c2C(=O)c2ccccc2C3=O)c1O, which TGI (TK-10 renal) is on record?
The TGI was greater than 100 µM.

And the TGI (UACC-62 melanoma)?
Its TGI is greater than 100 µM.

What about the TGI (LOX IMVI melanoma) of the same compound?
Its TGI is greater than 100 µM.

And the TGI (SK-OV-3 ovarian)?
Its TGI is greater than 100 µM.

And the TGI (M14 melanoma)?
Its TGI is greater than 100 µM.

And the TGI (SF-295 CNS)?
The TGI was greater than 100 µM.

And the TGI (MDA-MB-435)?
Its TGI is greater than 100 µM.

What about the TGI (NCI-H460 lung) of the same compound?
Its TGI is greater than 100 µM.

What about the TGI (NCI/ADR-RES ovarian) of the same compound?
Its TGI is greater than 100 µM.

CCNC(=O)c1cc2c(-c3cc(C(C)(C)O)ccc3Oc3c(C)cc(F)cc3C)cn(C)c(=O)c2[nH]1 was tested. Which GI50 (TK-10 renal) did it give?
Its GI50 is 0.298 µM.

What about the TGI (TK-10 renal) of the same compound?
Its TGI is 10.6 µM.

And the GI50 (UACC-62 melanoma)?
Its GI50 is 0.17 µM.

And the TGI (UACC-62 melanoma)?
Its TGI is 9.42 µM.

And the GI50 (HCC-2998 colon)?
Its GI50 is 1.66 µM.

And the TGI (HCC-2998 colon)?
The TGI was 4.03 µM.

And the GI50 (LOX IMVI melanoma)?
The GI50 was 0.922 µM.

What about the TGI (LOX IMVI melanoma) of the same compound?
The TGI was 2.74 µM.

What about the GI50 (M14 melanoma) of the same compound?
Its GI50 is 1.46 µM.

What about the TGI (M14 melanoma) of the same compound?
Its TGI is 14.2 µM.

What about the GI50 (SF-295 CNS) of the same compound?
The GI50 was 2.19 µM.

And the TGI (SF-295 CNS)?
The TGI was 11 µM.

And the GI50 (MDA-MB-435)?
Its GI50 is 1.41 µM.

What about the TGI (MDA-MB-435) of the same compound?
Its TGI is 14.3 µM.

What about the GI50 (NCI-H460 lung) of the same compound?
The GI50 was 3.3 µM.

What about the TGI (NCI-H460 lung) of the same compound?
The TGI was 17.6 µM.

What about the GI50 (NCI/ADR-RES ovarian) of the same compound?
Its GI50 is 7.49 µM.

And the TGI (NCI/ADR-RES ovarian)?
Its TGI is 23.2 µM.

Which results are given for COC1OC(COCc2ccc(Cl)cc2)C(OCc2ccc(Cl)cc2)C1N=[N+]=[N-] (stereo not given)?
TGI (TK-10 renal): > 100 µM; TGI (UACC-62 melanoma): 75.7 µM; TGI (HCC-2998 colon): > 100 µM; TGI (SK-OV-3 ovarian): > 100 µM; TGI (M14 melanoma): > 100 µM; TGI (SF-295 CNS): > 100 µM; TGI (NCI-H460 lung): > 100 µM

For Clc1ccc(C2SCc3nc4ccccc4n32)cc1Cl (stereo not given), which TGI (TK-10 renal) is on record?
The TGI was 25.9 µM.

What about the TGI (UACC-62 melanoma) of the same compound?
The TGI was 27.1 µM.

What about the TGI (LOX IMVI melanoma) of the same compound?
The TGI was 25.7 µM.

And the TGI (SK-OV-3 ovarian)?
Its TGI is 36.2 µM.

And the TGI (M14 melanoma)?
Its TGI is 27.2 µM.

And the TGI (SF-295 CNS)?
Its TGI is 24.2 µM.

What about the TGI (NCI-H460 lung) of the same compound?
Its TGI is 28.1 µM.

For COc1cc2c3c(c1OC)-c1c(ccc4c1OCO4)CC3(C#N)N(C(=O)c1ccccc1)CC2 (stereo not given), which TGI (TK-10 renal) is on record?
The TGI was greater than 100 µM.

What about the TGI (UACC-62 melanoma) of the same compound?
Its TGI is greater than 100 µM.

And the TGI (LOX IMVI melanoma)?
Its TGI is greater than 100 µM.

What about the TGI (SK-OV-3 ovarian) of the same compound?
Its TGI is greater than 100 µM.

And the TGI (M14 melanoma)?
The TGI was greater than 100 µM.

What about the TGI (SF-295 CNS) of the same compound?
Its TGI is greater than 100 µM.

What about the TGI (NCI-H460 lung) of the same compound?
The TGI was greater than 100 µM.

CC(=O)c1ccc(NC(=O)C(=O)Nn2c(=S)[nH]c3ccccc3c2=O)cc1 was tested. Which TGI (TK-10 renal) did it give?
Its TGI is greater than 100 µM.

And the TGI (UACC-62 melanoma)?
Its TGI is greater than 100 µM.

And the TGI (HCC-2998 colon)?
Its TGI is greater than 100 µM.

What about the TGI (LOX IMVI melanoma) of the same compound?
Its TGI is greater than 100 µM.

And the TGI (SK-OV-3 ovarian)?
The TGI was greater than 100 µM.

And the TGI (M14 melanoma)?
The TGI was greater than 100 µM.

What about the TGI (SF-295 CNS) of the same compound?
Its TGI is greater than 100 µM.

And the TGI (NCI-H460 lung)?
The TGI was greater than 100 µM.

CC1C[C@@H]2C(=O)NC(=O)[C@@H]2c2c1c1ccccc1n2C (stereo not given in full) was tested. Which TGI (TK-10 renal) did it give?
Its TGI is greater than 100 µM.

What about the TGI (UACC-62 melanoma) of the same compound?
The TGI was greater than 100 µM.

What about the TGI (HCC-2998 colon) of the same compound?
The TGI was greater than 100 µM.

What about the TGI (LOX IMVI melanoma) of the same compound?
The TGI was greater than 100 µM.

What about the TGI (SK-OV-3 ovarian) of the same compound?
The TGI was greater than 100 µM.

And the TGI (M14 melanoma)?
Its TGI is greater than 100 µM.

What about the TGI (SF-295 CNS) of the same compound?
The TGI was greater than 100 µM.

What about the TGI (NCI-H460 lung) of the same compound?
Its TGI is greater than 100 µM.

How did the TGI (TK-10 renal) turn out when O=C(Nc1nc2ncn(CCNCc3ccccc3)c2c(=O)[nH]1)c1ccccc1 was run?
Its TGI is greater than 100 µM.

And the TGI (UACC-62 melanoma)?
The TGI was greater than 100 µM.

What about the TGI (HCC-2998 colon) of the same compound?
Its TGI is greater than 100 µM.

And the TGI (LOX IMVI melanoma)?
The TGI was greater than 100 µM.

And the TGI (SK-OV-3 ovarian)?
The TGI was greater than 100 µM.

What about the TGI (M14 melanoma) of the same compound?
Its TGI is greater than 100 µM.

And the TGI (SF-295 CNS)?
Its TGI is greater than 100 µM.

And the TGI (NCI-H460 lung)?
Its TGI is greater than 100 µM.

How did the TGI (TK-10 renal) turn out when O=[N+]([O-])c1cccc(C2ON2C2CCCCC2)c1 (stereo not given) was run?
The TGI was 77 µM.

And the TGI (UACC-62 melanoma)?
The TGI was 48 µM.

And the TGI (HCC-2998 colon)?
The TGI was 30.9 µM.

What about the TGI (SK-OV-3 ovarian) of the same compound?
The TGI was greater than 100 µM.

What about the TGI (M14 melanoma) of the same compound?
The TGI was 32.4 µM.

What about the TGI (SF-295 CNS) of the same compound?
The TGI was greater than 100 µM.

And the TGI (NCI-H460 lung)?
Its TGI is 32.5 µM.
